Key:
[1] = Additional clinical studies of oral AP23573 on QD×5 schedule: tolerability; type: in vivo
Description: (§1) Additional clinical studies of AP23573 were conducted using a QD×5 dosing schedule for the delivery of 30, 40 or 50 mg of AP23573/day. A set of patients receiving the 30 mg and 50 mg doses were also given a loading dose on the first day of each week, which doubled the dose that day to 60 and 100 mg, respectively.
(§2) Methods: In a Phase 1/2a trial of single-agent oral AP23573, 17 patients, 9 of whom are sarcoma patients, were studied at the chosen dose and schedule (40 mg QD×5). In addition, of 7 patients who began dosing at 50 mg QD×5, 4 patients (2 of whom are sarcoma patients) underwent dose reduction to 40 mg. Twenty-one patients, therefore, received 40 mg QD×5, of whom 11 are sarcoma patients.
(§3) In another QD×5 study in which the dose on day 1 of each week was doubled (to comprise a loading dose), 7 patients (6 sarcoma patients) received doses of 60, 30, 30, 30 and 30 mg over each week (i.e., 30 mg QD×5, with the dose on day 1 doubled). Five other patients (2 sarcoma patients) received 50 mg QD×5, with the dose on day 1 doubled to 100 mg.
(§4) Overall, 36 patients were dosed on a QD×5 schedule, of whom 12 received loading doses on day 1 of each week.

sarcoma and other tumors = experiment: Additional clinical studies of oral AP23573 on QD×5 schedule: anti-tumor activity (Clinical Benefit Response); type: in vivo, patients; conditions: QD×5 schedules
Description: as §1, §2, §3, §4

[2] = tested on: refractory or advanced malignancies; experiment: Phase I trial of oral AP23573: antitumor activity assessed every 2 cycles; type: in vivo, patients
Description: (§5) Methods: Eligible patients (in cohorts of at least 3 patients) initially are randomized at the same flat, fixed starting dose of 20 mg/day into one of three 28-day dosing schedules, i.e. once daily continuous dosing for 4 days every week (QD×4), 21 of 28 days (QD×21), or all 28 days (QD×28). The subsequent dose level is determined based on review of safety and tolerability during Cycle 1 and enrollment for each schedule proceeds independently. Antitumor activity is assessed every 2 cycles. Whole blood is collected for PK assessment and peripheral blood mononuclear cells collected for PD assessment of the levels of phosphorylated 4E-BP1, a downstream target of mTOR.

[3] = Phase I dose escalation trial of oral AP23573: safety, tolerability and maximum tolerated dose; type: in vivo, patients
Source text: Background: In phase I clinical trials with an intravenous (IV) formulation of the mTOR inhibitor, AP23573, the drug was well-tolerated and active in a broad range of cancers. This trial is undertaken to assess the safety, tolerability and maximum tolerated dose (MTD) of an orally administered dosage form of AP23573. Secondary objectives include characterization of the pharmacokinetic (PK) and pharmacodynamic (PD) profiles of AP23573, as well as antitumor activity.
as §5

[4] = Phase I trial of oral AP23573: whole blood PK assessment; type: in vivo, patients; conditions: three schedules, 20 mg/day, Day 1 of Cycle 1, preliminary PK analysis
Description: as §5

[5] = tested on: phosphorylated 4E-BP1, a downstream target of mTOR; experiment: Phase I trial of oral AP23573: PD assessment of phosphorylated 4E-BP1 levels in peripheral blood mononuclear cells; type: in vivo, patients
Description: as §5

CO[C@H]1C[C@@H]2CC[C@@H](C)[C@@](O)(O2)C(=O)C(=O)N2CCCC[C@H]2C(=O)O[C@H]([C@H](C)C[C@@H]2CC[C@@H](OP(C)(C)=O)[C@H](OC)C2)CC(=O)[C@H](C)/C=C(\C)[C@@H](O)[C@@H](OC)C(=O)[C@H](C)C[C@H](C)/C=C/C=C/C=C/1C [AP23573]
side-effects ([1]; 40 mg QD×5): generally mild or moderate and manageable
tolerability of dose level ([1]; 50 mg QD×5 with the dose on day 1 doubled to 100 mg): exceed the maximum tolerated dose
evaluable sarcoma patients that were CBRs (sarcoma and other tumors): 43%
patients achieving a Clinical Benefit Response (CBR) (sarcoma and other tumors; of the 26 evaluable patients): Seven
antitumor activity (decrease) ([2]; patient with metastatic breast carcinoma, qd×4, 20 mg/day cohort): 22%
antitumor activity (decrease) ([2]; patient with metastatic renal cell carcinoma, qd×21, 20 mg/day cohort): 21%
disease status ([2]; patient with soft tissue sarcoma, QD×4, 20 mg/day cohort, after 2 cycles): stable disease
dose-limiting toxicity (DLT) ([3]; QD×4 20 mg/day cohort): no dose-limiting toxicity (DLT) was reported
dose-limiting toxicity (DLT) ([3]; QD×4 30 mg/day schedule): no DLTs
side effects ([3]; QD×4 60 and 70 mg/day cohort): side effects were reported
maximum tolerated daily dose ([3]; QD×4 schedule): 50 mg/day
dose-limiting toxicity (DLT) ([3]; QD×21 cohort, 20 mg/day): severe stomatitis and fatigue
maximum tolerated daily dose ([3]; QD×21 schedule): 10 mg/day
dose-limiting toxicity (DLT) ([3]; QD×28 cohort, 20 mg/day): severe stomatitis and fatigue
maximum tolerated daily dose ([3]; QD×28 schedule): 15 mg/day
severity of adverse events related to AP23573 during Cycle 1 ([3]; three schedules): mild or moderate in severity, reversible
adverse events related to AP23573 during Cycle 1 in at least 2 patients ([3]; three schedules, 10 to 30 mg/day): mucositis, fatigue, rash, diarrhea, anorexia, and nausea
Cmax range [4]: 77 to 163 ng/mL
median Cmax [4]: 98.5 ng/mL
reduction of phosphorylated 4E-BP1 levels ([5]; 1 day after dosing): > 80%
phosphorylated 4E-BP1 levels during the dosing period ([5]; during the dosing period): remain reduced during the dosing period

From US20070185150A1, “Therapeutic methods” (priority 2005, published 2007)
